Test results taken from US20110105397A1, “METHOD FOR TREATING HEART FAILURE WITH STRESSCOPIN-LIKE PEPTIDES” (priority 2009, published 2011).

System: anaesthetized mongrel dogs
Test: Hemodynamic, angiographic, echocardiographic profile in anaesthetized healthy dogs, 30-minute IV infusion
Assay type: in vivo, dog
Conditions: for CO (Cardiac output) / HR (Heart rate) / LV + dP/dt (LV contractility) / LVEDA (LV end diastolic area) / LVEDV (LV end diastolic volume) / LVEF (LV ejection fraction) / LVESA (LV end systolic area) / LVESV (LV end systolic volume) / LVFAS (LV fractional area of shortening) / PSAP (Peak systolic aortic pressure) / SV (Stroke volume): 30 min
Procedure: The effects of h-SCP (SEQ ID NO: 1) on cardiovascular function were also assessed in anaesthetized mongrel dogs following intravenous bolus and 30-minute infusions. Hemodynamic and left ventricular systolic and diastolic function was evaluated using conventional hemodynamic, angiographic, echocardiographic, and radiographic methods with the results summarized in Table 16.
The findings described above were further examined in a study, in which h-SCP (SEQ ID NO:1) was infused over a 30-minute period at the same total doses that were administered by bolus as described above with the results presented in Table 17 and FIGS. 11A & B. As in the case of bolus dosing h-SCP (SEQ ID NO:1) elicited dose- (infusion-) dependent changes in blood pressure, left ventricular systolic and diastolic function, and heart rate. However, at the lower range of the dose- (infusion-) response curve there was a pronounced lessening in the positive chronotropic and blood pressure response with marked and significant increase in cardiac function measured as increased CO and LVEF. […] The corresponding plasma concentration of h-SCP (SEQ ID NO:1) was 4,577 pg/mL.

Substance: H-TKFTLSLDVPTNIMNLLFNIAKAKNLRAQAAANAHLMAQI-NH2 [SEQ ID NO: 1, TKFTLSLDVPTNIMNLLFNIAKAKNLRAQAAANAHLMAQI-NH2]
- CO (Cardiac output) (IV infusion 22 ng/kg/min): 2.32 L/min
- HR (Heart rate) (IV infusion 22 ng/kg/min): 81.2 beats/min
- LV + dP/dt (LV contractility) (IV infusion 22 ng/kg/min): 1598 mmHg/sec
- LVEDA (LV end diastolic area) (IV infusion 22 ng/kg/min): 12.2 cm^2
- LVEDV (LV end diastolic volume) (IV infusion 22 ng/kg/min): 53.0 mL
- LVEF (LV ejection fraction) (IV infusion 22 ng/kg/min): 54.0%
- LVESA (LV end systolic area) (IV infusion 22 ng/kg/min): 6.3 cm^2
- LVESV (LV end systolic volume) (IV infusion 22 ng/kg/min): 24.5 mL
- LVFAS (LV fractional area of shortening) (IV infusion 22 ng/kg/min): 49%
- PSAP (Peak systolic aortic pressure) (IV infusion 22 ng/kg/min): 95.0 mmHg
- SV (Stroke volume) (IV infusion 22 ng/kg/min): 28.5 mL
- CO (Cardiac output) (IV infusion 43 ng/kg/min): 2.82 L/min
- HR (Heart rate) (IV infusion 43 ng/kg/min): 88.7 beats/min
- LV + dP/dt (LV contractility) (IV infusion 43 ng/kg/min): 1875 mmHg/sec
- LVEDA (LV end diastolic area) (IV infusion 43 ng/kg/min): 11.9 cm^2
- LVEDV (LV end diastolic volume) (IV infusion 43 ng/kg/min): 55.2 mL
- LVEF (LV ejection fraction) (IV infusion 43 ng/kg/min): 57.5%
- LVESA (LV end systolic area) (IV infusion 43 ng/kg/min): 5.8 cm^2
- LVESV (LV end systolic volume) (IV infusion 43 ng/kg/min): 23.5 mL
- LVFAS (LV fractional area of shortening) (IV infusion 43 ng/kg/min): 51.5%
- PSAP (Peak systolic aortic pressure) (IV infusion 43 ng/kg/min): 95.2 mmHg
- SV (Stroke volume) (IV infusion 43 ng/kg/min): 31.7 mL
- CO (Cardiac output) (IV infusion 86 ng/kg/min): 2.81 L/min
- HR (Heart rate) (IV infusion 86 ng/kg/min): 91.0 beats/min
- LV + dP/dt (LV contractility) (IV infusion 86 ng/kg/min): 1622 mmHg/sec
- LVEDA (LV end diastolic area) (IV infusion 86 ng/kg/min): 11.8 cm^2
- LVEDV (LV end diastolic volume) (IV infusion 86 ng/kg/min): 54.2 mL
- LVEF (LV ejection fraction) (IV infusion 86 ng/kg/min): 56.5%
- LVESA (LV end systolic area) (IV infusion 86 ng/kg/min): 5.9 cm^2
- LVESV (LV end systolic volume) (IV infusion 86 ng/kg/min): 23.5 mL
- LVFAS (LV fractional area of shortening) (IV infusion 86 ng/kg/min): 50.0%
- PSAP (Peak systolic aortic pressure) (IV infusion 86 ng/kg/min): 91.7 mmHg
- SV (Stroke volume) (IV infusion 86 ng/kg/min): 30.7 mL
- CO (Cardiac output) (IV infusion 146 ng/kg/min): 2.97 L/min
- HR (Heart rate) (IV infusion 146 ng/kg/min): 102.5 beats/min
- LV + dP/dt (LV contractility) (IV infusion 146 ng/kg/min): 1594 mmHg/sec
- LVEDA (LV end diastolic area) (IV infusion 146 ng/kg/min): 11.5 cm^2
- LVEDV (LV end diastolic volume) (IV infusion 146 ng/kg/min): 49.5 mL
- LVEF (LV ejection fraction) (IV infusion 146 ng/kg/min): 58.2%
- LVESA (LV end systolic area) (IV infusion 146 ng/kg/min): 5.6 cm^2
- LVESV (LV end systolic volume) (IV infusion 146 ng/kg/min): 20.7 mL
- LVFAS (LV fractional area of shortening) (IV infusion 146 ng/kg/min): 51%
- PSAP (Peak systolic aortic pressure) (IV infusion 146 ng/kg/min): 90.0 mmHg
- SV (Stroke volume) (IV infusion 146 ng/kg/min): 28.7 mL
- CO (Cardiac output) (IV infusion 437 ng/kg/min): 3.25 L/min
- LV + dP/dt (LV contractility) (IV infusion 437 ng/kg/min): 1657 mmHg/sec
- LVEDA (LV end diastolic area) (IV infusion 437 ng/kg/min): 10.8 cm^2
- LVEDV (LV end diastolic volume) (IV infusion 437 ng/kg/min): 46.0 mL
- LVEF (LV ejection fraction) (IV infusion 437 ng/kg/min): 60.7%
- LVESA (LV end systolic area) (IV infusion 437 ng/kg/min): 5.1 cm^2
- LVESV (LV end systolic volume) (IV infusion 437 ng/kg/min): 18.2 mL
- LVFAS (LV fractional area of shortening) (IV infusion 437 ng/kg/min): 53.5%
- PSAP (Peak systolic aortic pressure) (IV infusion 437 ng/kg/min): 89.5 mmHg
- SV (Stroke volume) (IV infusion 437 ng/kg/min): 28 mL
- HR (Heart rate) (IV infusion 437 ng/kg/min, junctional tachycardia): 117.3 beats/min
- minimum anticipated biological effect level (MABEL) (healthy dogs): 22 ng/kg/min
- infusion rate for minimal effect (healthy dogs, 30-minute infusion): 43 ng/kg/min
